In patent publication US9937151B2, “Carbapenem antibacterials with gram-negative activity” (priority 2010, dated 2018):
In brackets after ≈: the same amount, converted by molar mass.

System: G(−) bacterial strains
Test: Dilution antimicrobial susceptibility tests (MIC, NCCLS agar dilution / broth dilution)
Assay type: cell-based, Gram-negative organisms
Conditions: unit assumed
Experimental: The MIC (minimum inhibitory concentration) was determined by the NCCLS (National Committee for Clinical Laboratory Standards) methods 2000. Methods for dilution antimicrobial susceptibility testing for bacteria that growth aerobically (M7-A5, vol. 20, No. 2). The agar dilution method for determining antimicrobial susceptibility was carried out using Mueller-Hinton agar. A final inoculum of 10^4 CFU/spot was applied with an inoculation device. Broth dilution tests were performed with 5×10^5 CFU/well in 96 well plates. The susceptibilities of streptococci were determined by Mueller-Hinton agar supplemented with 5% sheep blood. All assays were run with the indicated control strains, available from the ATCC (American Type Culture Collection, Rockville, Md.).
Abbreviations used in Table 1 are defined as follows: Cf-R: Ceftazidime Resistance, Ci-R: Ciprofloxacin Resistance, Gen-R: Gentamycin Resistance, Imp-R: Imipenem Resistance, Mp-R: Meropenem Resistance, Ofx-R: Ofloxacin Resistance, B+: β-lactamase Production, AmpC: AmpC-lactamase Hyper production, CBPase: Carbapenemase Production.

[1] = strain #1 Acinetobacter calcoaceticus
[2] = strain #2 Acinetobacter baumannii, Cf-R, Ci-R
[3] = strain #3 Acinetobacter baumannii, Cf-R, Ci-R, Mp-I
[4] = strain #4 Acinetobacter baumannii, Cf-R, Imp-I, CBPase
[5] = strain #7 Enterobacter aerogenes
[6] = strain #8 Enterobacter cloacae, Cf-R, B+
[7] = strain #9 Enterobacter cloacae, Cf-R
[8] = strain #10 Escherichia coli, Ci-R
[9] = strain #11 Escherichia coli, Ci-R, AmpC
[10] = strain #15 Klebsiella pneumoniae
[11] = strain #16 Moraxella catarrhalis
[12] = strain #21 Providencia rettgeri
[13] = strain #22 Salmonella typhimurium
[14] = strain #25 Shigella dysenteriae
[15] = strain #28 Stenotrophomonas maltophilia
[16] = strain #29 Pseudomonas aeruginosa
[17] = strain #30 Pseudomonas aeruginosa
[18] = strain #31 Pseudomonas aeruginosa, Ofx-R
[19] = strain #32 Pseudomonas aeruginosa, Cf-R
[20] = strain #33 Pseudomonas aeruginosa, Ci-R
[21] = strain #34 Pseudomonas aeruginosa, Gen-R
[22] = strain #35 Pseudomonas aeruginosa, Ip-R
[23] = strain #36 Pseudomonas aeruginosa, Cf-R, Ci-R, Mp-R

Row | Structure (SMILES) | MIC [1] [µg/mL] | MIC [2] [µg/mL] | MIC [3] [µg/mL] | MIC [4] [µg/mL] | MIC (strain #5 Citrobacter diversus) [µg/mL] | MIC (strain #6 Citrobacter freundii) [µg/mL] | MIC [5] [µg/mL] | MIC [6] [µg/mL] | MIC [7] [µg/mL] | MIC [8] [µg/mL] | MIC [9] [µg/mL] | MIC (strain #12 Escherichia coli) [µg/mL] | MIC (strain #13 Escherichia coli) [µg/mL] | MIC (strain #14 Klebsiella oxytoca) [µg/mL] | MIC [10] [µg/mL] | MIC [11] [µg/mL] | MIC (strain #17 Morganella Morganii) [µg/mL] | MIC (strain #18 Morganella Morganii) [µg/mL] | MIC (strain #19 Proteus vulgaris) [µg/mL] | MIC (strain #20 Proteus mirabilis) [µg/mL] | also measured
1 | C[C@@H](O)C1C(=O)N2C(C(=O)O)=C(CN3CC[C@H](NC(=O)C(F)(F)F)C3)[C@H](C)C12 (stereo partly drawn) [Compound 37] | 2 (≈ 4.93 µM) | 4 (≈ 9.87 µM) | 8 (≈ 19.7 µM) | 4 (≈ 9.87 µM) | 0.5 (≈ 1.23 µM) | 0.5 (≈ 1.23 µM) | 2 (≈ 4.93 µM) | 0.5 (≈ 1.23 µM) | 1 (≈ 2.47 µM) | 0.5 (≈ 1.23 µM) | 0.5 (≈ 1.23 µM) | 0.5 (≈ 1.23 µM) | 0.5 (≈ 1.23 µM) | 0.5 (≈ 1.23 µM) | 1 (≈ 2.47 µM) | ≤ 0.008 | 2 (≈ 4.93 µM) | 2 (≈ 4.93 µM) | 1 (≈ 2.47 µM) | 0.5 (≈ 1.23 µM) | MIC [12]: 1 µg/mL (≈ 2.47 µM); MIC [13]: 0.5 µg/mL (≈ 1.23 µM); MIC (strain #23 Serratia marcescens): 1 µg/mL (≈ 2.47 µM); MIC (strain #24 Serratia marcescens): 2 µg/mL (≈ 4.93 µM); MIC [14]: 0.5 µg/mL (≈ 1.23 µM); MIC (strain #26 Shigella sonnei): 0.5 µg/mL (≈ 1.23 µM); MIC (strain #27 Shigella flexneri): 0.25 µg/mL (≈ 0.617 µM); MIC [15]: 1 µg/mL (≈ 2.47 µM); MIC [16]: 8 µg/mL (≈ 19.7 µM); MIC [17]: 8 µg/mL (≈ 19.7 µM); MIC [18]: 4 µg/mL (≈ 9.87 µM); MIC [19]: 8 µg/mL (≈ 19.7 µM); MIC [20]: 8 µg/mL (≈ 19.7 µM); MIC [21]: 8 µg/mL (≈ 19.7 µM); MIC [22]: 16 µg/mL (≈ 39.5 µM); MIC [23]: 32 µg/mL (≈ 78.9 µM)
2 | C[C@@H](O)C1C(=O)N2C(C(=O)O)=C(CN3CC(C(N)=O)C3)[C@H](C)C12 (stereo partly drawn) [Compound 49] | 0.25 (≈ 0.773 µM) | 0.5 (≈ 1.55 µM) | 2 (≈ 6.19 µM) | 1 (≈ 3.09 µM) | 0.063 (≈ 0.195 µM) | 0.13 (≈ 0.402 µM) | 0.25 (≈ 0.773 µM) | 0.063 (≈ 0.195 µM) | 0.13 (≈ 0.402 µM) | 0.063 (≈ 0.195 µM) | 0.063 (≈ 0.195 µM) | 0.063 (≈ 0.195 µM) | 0.13 (≈ 0.402 µM) | 0.25 (≈ 0.773 µM) | 0.25 (≈ 0.773 µM) | ≤ 0.008 | 2 (≈ 6.19 µM) | 1 (≈ 3.09 µM) | 0.5 (≈ 1.55 µM) | 0.13 (≈ 0.402 µM) | MIC [12]: 0.5 µg/mL (≈ 1.55 µM); MIC [13]: 0.13 µg/mL (≈ 0.402 µM); MIC (strain #23 Serratia marcescens): 0.25 µg/mL (≈ 0.773 µM); MIC (strain #24 Serratia marcescens): 0.25 µg/mL (≈ 0.773 µM); MIC [14]: 0.13 µg/mL (≈ 0.402 µM); MIC (strain #26 Shigella sonnei): 0.13 µg/mL (≈ 0.402 µM); MIC (strain #27 Shigella flexneri): 0.063 µg/mL (≈ 0.195 µM); MIC [15]: 0.13 µg/mL (≈ 0.402 µM); MIC [16]: 4 µg/mL (≈ 12.4 µM); MIC [17]: 4 µg/mL (≈ 12.4 µM); MIC [18]: 2 µg/mL (≈ 6.19 µM); MIC [19]: 4 µg/mL (≈ 12.4 µM); MIC [20]: 4 µg/mL (≈ 12.4 µM); MIC [21]: 4 µg/mL (≈ 12.4 µM); MIC [22]: 8 µg/mL (≈ 24.7 µM); MIC [23]: 32 µg/mL (≈ 99 µM)
3 | C[C@@H](O)C1C(=O)N2C(C(=O)O)=C(CN3CC[C@H](CNC(=N)N)C3)[C@H](C)C12 (stereo partly drawn) [Compound 99] | 0.25 (≈ 0.684 µM) | 1 (≈ 2.74 µM) | 2 (≈ 5.47 µM) | 2 (≈ 5.47 µM) | 0.5 (≈ 1.37 µM) | 1 (≈ 2.74 µM) | 2 (≈ 5.47 µM) | 0.5 (≈ 1.37 µM) | 1 (≈ 2.74 µM) | 0.5 (≈ 1.37 µM) | 0.5 (≈ 1.37 µM) | 0.5 (≈ 1.37 µM) | 1 (≈ 2.74 µM) | 2 (≈ 5.47 µM) | 1 (≈ 2.74 µM) | ≤ 0.008 | 4 (≈ 10.9 µM) | 4 (≈ 10.9 µM) | 2 (≈ 5.47 µM) | 1 (≈ 2.74 µM) | MIC [12]: 4 µg/mL (≈ 10.9 µM); MIC [13]: 1 µg/mL (≈ 2.74 µM); MIC (strain #23 Serratia marcescens): 2 µg/mL (≈ 5.47 µM); MIC (strain #24 Serratia marcescens): 4 µg/mL (≈ 10.9 µM); MIC [14]: 1 µg/mL (≈ 2.74 µM); MIC (strain #26 Shigella sonnei): 1 µg/mL (≈ 2.74 µM); MIC (strain #27 Shigella flexneri): 1 µg/mL (≈ 2.74 µM); MIC [15]: 0.25 µg/mL (≈ 0.684 µM); MIC [16]: 2 µg/mL (≈ 5.47 µM); MIC [17]: 2 µg/mL (≈ 5.47 µM); MIC [18]: 1 µg/mL (≈ 2.74 µM); MIC [19]: 4 µg/mL (≈ 10.9 µM); MIC [20]: 4 µg/mL (≈ 10.9 µM); MIC [21]: 4 µg/mL (≈ 10.9 µM); MIC [22]: 4 µg/mL (≈ 10.9 µM); MIC [23]: > 32 µg/mL
4 | CC(O)C1C(=O)N2C(C(=O)O)=C(CN3CCC(C(=N)N)C3)C(C)C12 (stereo not drawn) [Compound 185a] | 0.13 (≈ 0.386 µM) | 0.5 (≈ 1.49 µM) | 1 (≈ 2.97 µM) | 1 (≈ 2.97 µM) | 0.13 (≈ 0.386 µM) | 0.13 (≈ 0.386 µM) | 0.5 (≈ 1.49 µM) | 0.063 (≈ 0.187 µM) | 0.13 (≈ 0.386 µM) | 0.063 (≈ 0.187 µM) | 0.063 (≈ 0.187 µM) | 0.063 (≈ 0.187 µM) | 0.13 (≈ 0.386 µM) | 0.25 (≈ 0.743 µM) | 0.25 (≈ 0.743 µM) | ≤ 0.008 | 1 (≈ 2.97 µM) | 1 (≈ 2.97 µM) | 0.5 (≈ 1.49 µM) | 0.13 (≈ 0.386 µM) | MIC [12]: 0.5 µg/mL (≈ 1.49 µM); MIC [13]: 0.13 µg/mL (≈ 0.386 µM); MIC (strain #23 Serratia marcescens): 0.25 µg/mL (≈ 0.743 µM); MIC (strain #24 Serratia marcescens): 0.5 µg/mL (≈ 1.49 µM); MIC [14]: 0.13 µg/mL (≈ 0.386 µM); MIC (strain #26 Shigella sonnei): 0.13 µg/mL (≈ 0.386 µM); MIC (strain #27 Shigella flexneri): 0.063 µg/mL (≈ 0.187 µM); MIC [15]: 0.063 µg/mL (≈ 0.187 µM); MIC [16]: 1 µg/mL (≈ 2.97 µM); MIC [17]: 1 µg/mL (≈ 2.97 µM); MIC [18]: 0.5 µg/mL (≈ 1.49 µM); MIC [19]: 1 µg/mL (≈ 2.97 µM); MIC [20]: 1 µg/mL (≈ 2.97 µM); MIC [21]: 1 µg/mL (≈ 2.97 µM); MIC [22]: 2 µg/mL (≈ 5.95 µM); MIC [23]: 8 µg/mL (≈ 23.8 µM)
